From BindingDB's records for doi:10.1016/0028-3908(94)90059-0 (University of Alberta, 1994) come the findings set out here.

“And” between values parts separate entries of the source, which are not always exact repeats. Equal entries are not always repeated.

Assay [1] concerns the target 5-hydroxytryptamine receptor 7 (Mus musculus, UniProt P32304).
Assay [2] concerns the target 5-hydroxytryptamine receptor 5A (Mus musculus, UniProt P30966).
Assay [3] addresses 5-hydroxytryptamine receptor 1B (Homo sapiens, UniProt P28222).
Assay [4] deals with 5-hydroxytryptamine receptor 1D (Homo sapiens, UniProt P28221).
5-hydroxytryptamine receptor 1D (Homo sapiens, UniProt P28221), sequence (P28221 whole entry): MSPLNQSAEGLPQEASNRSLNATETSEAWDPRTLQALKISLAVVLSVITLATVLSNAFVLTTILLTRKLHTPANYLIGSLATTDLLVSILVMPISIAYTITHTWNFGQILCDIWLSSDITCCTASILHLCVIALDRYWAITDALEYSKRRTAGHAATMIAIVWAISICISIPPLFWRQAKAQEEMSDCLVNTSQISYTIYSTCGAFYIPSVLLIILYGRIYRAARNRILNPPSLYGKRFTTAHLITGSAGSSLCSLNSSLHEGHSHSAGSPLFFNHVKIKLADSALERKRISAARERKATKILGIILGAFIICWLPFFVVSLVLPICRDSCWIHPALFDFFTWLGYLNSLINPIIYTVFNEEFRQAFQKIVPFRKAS
The target of assay [5] is T1, 5-hydroxytryptamine receptor 1F (Homo sapiens, UniProt P30939).
T1 sequence (P30939 whole entry): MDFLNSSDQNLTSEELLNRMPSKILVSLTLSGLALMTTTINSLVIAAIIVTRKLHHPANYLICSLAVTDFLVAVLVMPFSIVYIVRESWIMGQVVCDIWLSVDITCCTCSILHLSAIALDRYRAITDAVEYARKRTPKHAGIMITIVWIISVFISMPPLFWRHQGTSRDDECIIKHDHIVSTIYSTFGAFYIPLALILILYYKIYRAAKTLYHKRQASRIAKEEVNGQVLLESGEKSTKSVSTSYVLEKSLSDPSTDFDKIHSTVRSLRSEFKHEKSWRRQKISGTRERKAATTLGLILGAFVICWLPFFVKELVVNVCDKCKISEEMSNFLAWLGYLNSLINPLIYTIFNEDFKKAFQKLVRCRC

Assay [6] concerns the target 5-hydroxytryptamine receptor 1B (Rattus norvegicus, UniProt P28564).
Assay [7] addresses 5-hydroxytryptamine receptor 2B (Rattus norvegicus, UniProt P30994).
The target in assay [8] is 5-hydroxytryptamine receptor 2B (Mus musculus, UniProt Q02152).
5-hydroxytryptamine receptor 2B (Mus musculus, UniProt Q02152), sequence (Q02152 whole entry): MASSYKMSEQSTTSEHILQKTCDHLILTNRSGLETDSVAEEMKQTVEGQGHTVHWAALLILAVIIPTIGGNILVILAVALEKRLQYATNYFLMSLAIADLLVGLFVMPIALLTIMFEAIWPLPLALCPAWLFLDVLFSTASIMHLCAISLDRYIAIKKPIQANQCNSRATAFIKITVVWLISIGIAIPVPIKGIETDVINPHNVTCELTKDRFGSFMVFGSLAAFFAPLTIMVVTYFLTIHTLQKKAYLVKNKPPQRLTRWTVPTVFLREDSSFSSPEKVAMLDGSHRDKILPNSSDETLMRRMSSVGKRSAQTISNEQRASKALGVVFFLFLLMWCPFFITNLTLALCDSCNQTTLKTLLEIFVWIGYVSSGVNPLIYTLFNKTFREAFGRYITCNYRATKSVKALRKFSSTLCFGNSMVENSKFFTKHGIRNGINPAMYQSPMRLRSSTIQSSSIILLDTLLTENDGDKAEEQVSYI
For assay [9], the target named is 5-hydroxytryptamine receptor 1D (Canis lupus familiaris, UniProt P11614).
5-hydroxytryptamine receptor 1D (Canis lupus familiaris, UniProt P11614), sequence (P11614 whole entry): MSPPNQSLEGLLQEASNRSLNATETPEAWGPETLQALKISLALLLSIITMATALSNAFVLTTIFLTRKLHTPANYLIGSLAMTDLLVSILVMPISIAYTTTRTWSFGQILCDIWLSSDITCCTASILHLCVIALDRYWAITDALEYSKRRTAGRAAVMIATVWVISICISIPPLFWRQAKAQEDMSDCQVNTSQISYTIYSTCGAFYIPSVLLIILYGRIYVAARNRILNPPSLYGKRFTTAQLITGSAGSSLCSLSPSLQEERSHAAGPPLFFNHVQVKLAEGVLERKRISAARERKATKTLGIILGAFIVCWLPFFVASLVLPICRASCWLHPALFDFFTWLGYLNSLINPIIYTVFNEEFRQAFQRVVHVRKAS
For assay [10], the target named is T2, 5-hydroxytryptamine receptor 1F (Mus musculus, UniProt Q02284).
T2 sequence (Q02284 whole entry): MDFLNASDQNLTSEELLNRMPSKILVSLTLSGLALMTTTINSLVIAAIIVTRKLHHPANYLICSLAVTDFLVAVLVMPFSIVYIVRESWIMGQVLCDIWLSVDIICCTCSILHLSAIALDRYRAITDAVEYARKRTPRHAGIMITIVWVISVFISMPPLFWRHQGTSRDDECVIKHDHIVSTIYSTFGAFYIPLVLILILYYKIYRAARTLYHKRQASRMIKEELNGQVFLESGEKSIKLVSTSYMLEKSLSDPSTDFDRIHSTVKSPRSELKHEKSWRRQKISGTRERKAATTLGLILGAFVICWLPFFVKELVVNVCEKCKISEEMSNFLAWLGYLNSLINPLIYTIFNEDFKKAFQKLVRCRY

The target of assay [11] is 5-hydroxytryptamine receptor 1B (Mus musculus, UniProt P28334).
5-hydroxytryptamine receptor 1B (Mus musculus, UniProt P28334), sequence (P28334 whole entry): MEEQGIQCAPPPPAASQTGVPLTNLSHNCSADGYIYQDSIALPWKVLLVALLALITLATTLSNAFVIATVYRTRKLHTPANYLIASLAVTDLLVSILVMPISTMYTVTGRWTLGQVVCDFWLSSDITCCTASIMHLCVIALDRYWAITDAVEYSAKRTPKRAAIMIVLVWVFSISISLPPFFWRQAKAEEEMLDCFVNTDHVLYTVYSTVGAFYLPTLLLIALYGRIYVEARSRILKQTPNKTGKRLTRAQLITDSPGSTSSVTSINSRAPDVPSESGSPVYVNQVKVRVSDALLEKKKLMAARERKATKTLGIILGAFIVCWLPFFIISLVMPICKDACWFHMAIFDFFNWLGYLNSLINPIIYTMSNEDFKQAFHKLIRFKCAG
The target of assay [12] is 5-hydroxytryptamine receptor 1D (Rattus norvegicus, UniProt P28565).
5-hydroxytryptamine receptor 1D (Rattus norvegicus, UniProt P28565), sequence (P28565 whole entry): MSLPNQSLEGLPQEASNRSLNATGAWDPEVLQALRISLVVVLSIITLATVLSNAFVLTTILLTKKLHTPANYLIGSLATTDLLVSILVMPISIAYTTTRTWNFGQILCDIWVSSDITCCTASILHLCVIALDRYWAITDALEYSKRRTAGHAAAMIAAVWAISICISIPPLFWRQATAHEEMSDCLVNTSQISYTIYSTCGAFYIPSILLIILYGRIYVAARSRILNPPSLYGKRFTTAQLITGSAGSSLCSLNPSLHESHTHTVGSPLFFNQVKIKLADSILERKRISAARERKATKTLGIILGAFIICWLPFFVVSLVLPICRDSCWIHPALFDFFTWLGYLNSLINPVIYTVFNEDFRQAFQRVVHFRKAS
For assay [13], the target named is T3, 5-hydroxytryptamine receptor 1F (Rattus norvegicus, UniProt P30940).
T3 sequence (P30940 whole entry): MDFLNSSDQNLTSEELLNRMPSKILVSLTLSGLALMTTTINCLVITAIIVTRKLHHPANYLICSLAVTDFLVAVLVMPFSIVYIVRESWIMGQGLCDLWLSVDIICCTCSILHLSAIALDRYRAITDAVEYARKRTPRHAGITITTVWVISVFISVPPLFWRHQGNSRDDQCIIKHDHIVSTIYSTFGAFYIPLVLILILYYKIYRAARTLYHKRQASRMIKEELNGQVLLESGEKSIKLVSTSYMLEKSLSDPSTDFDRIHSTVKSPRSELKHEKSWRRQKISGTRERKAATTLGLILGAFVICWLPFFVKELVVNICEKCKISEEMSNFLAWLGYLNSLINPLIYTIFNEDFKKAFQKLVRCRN

In assay [14] the target is 5-hydroxytryptamine receptor 1E (Homo sapiens, UniProt P28566).
5-hydroxytryptamine receptor 1E, sequence (P28566 whole entry): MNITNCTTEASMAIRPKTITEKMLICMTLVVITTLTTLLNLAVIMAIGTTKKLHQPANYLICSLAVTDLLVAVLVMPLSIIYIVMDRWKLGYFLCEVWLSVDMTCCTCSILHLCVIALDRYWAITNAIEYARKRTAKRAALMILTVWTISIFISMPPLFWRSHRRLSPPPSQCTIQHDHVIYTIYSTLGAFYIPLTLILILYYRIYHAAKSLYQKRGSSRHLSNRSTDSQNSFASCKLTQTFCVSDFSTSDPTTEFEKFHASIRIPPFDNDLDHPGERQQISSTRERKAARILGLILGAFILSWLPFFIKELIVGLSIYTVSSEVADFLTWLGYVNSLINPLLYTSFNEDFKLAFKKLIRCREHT

5-hydroxytryptamine receptor 1B (Homo sapiens, UniProt P28222), sequence (P28222 whole entry): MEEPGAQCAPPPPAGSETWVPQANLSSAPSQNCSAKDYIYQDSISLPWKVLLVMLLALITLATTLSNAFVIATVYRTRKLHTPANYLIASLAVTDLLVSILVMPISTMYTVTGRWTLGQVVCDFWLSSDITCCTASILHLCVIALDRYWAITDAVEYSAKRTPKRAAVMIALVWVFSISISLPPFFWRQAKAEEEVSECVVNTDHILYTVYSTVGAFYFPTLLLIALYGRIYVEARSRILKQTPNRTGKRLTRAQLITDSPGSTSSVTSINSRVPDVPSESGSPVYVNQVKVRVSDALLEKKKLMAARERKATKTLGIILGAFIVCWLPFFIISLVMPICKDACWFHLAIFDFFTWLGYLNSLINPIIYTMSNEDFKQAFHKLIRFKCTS
5-hydroxytryptamine receptor 7, sequence (P32304 whole entry): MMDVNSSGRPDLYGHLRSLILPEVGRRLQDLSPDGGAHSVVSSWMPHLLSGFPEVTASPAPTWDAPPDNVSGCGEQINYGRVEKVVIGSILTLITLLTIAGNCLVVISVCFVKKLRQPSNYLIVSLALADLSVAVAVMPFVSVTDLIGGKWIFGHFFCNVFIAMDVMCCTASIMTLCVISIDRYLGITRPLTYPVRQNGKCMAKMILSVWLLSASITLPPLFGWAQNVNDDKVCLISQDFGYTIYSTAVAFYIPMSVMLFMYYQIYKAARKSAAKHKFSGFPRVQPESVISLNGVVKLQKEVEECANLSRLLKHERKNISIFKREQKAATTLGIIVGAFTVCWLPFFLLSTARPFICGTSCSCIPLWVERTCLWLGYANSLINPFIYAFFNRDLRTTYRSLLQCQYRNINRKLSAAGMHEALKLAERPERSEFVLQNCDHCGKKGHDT
5-hydroxytryptamine receptor 5A, sequence (P30966 whole entry): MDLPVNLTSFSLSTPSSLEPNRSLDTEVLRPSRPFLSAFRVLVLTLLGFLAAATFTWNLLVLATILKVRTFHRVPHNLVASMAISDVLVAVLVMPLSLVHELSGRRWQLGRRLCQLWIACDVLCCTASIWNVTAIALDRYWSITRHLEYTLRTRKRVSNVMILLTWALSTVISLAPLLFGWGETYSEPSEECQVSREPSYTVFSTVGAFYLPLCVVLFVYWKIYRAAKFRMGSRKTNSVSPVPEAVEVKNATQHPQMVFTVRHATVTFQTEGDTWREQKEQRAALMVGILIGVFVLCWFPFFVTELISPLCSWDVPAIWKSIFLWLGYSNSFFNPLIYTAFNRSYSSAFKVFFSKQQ
5-hydroxytryptamine receptor 1B (Rattus norvegicus, UniProt P28564), sequence (P28564 whole entry): as the sequence (P28334 whole entry) above, with A15T, T23A, G33D, E152D, M192V, A270V, D272E, A385T counted along it
5-hydroxytryptamine receptor 2B (Rattus norvegicus, UniProt P30994), sequence (P30994 whole entry): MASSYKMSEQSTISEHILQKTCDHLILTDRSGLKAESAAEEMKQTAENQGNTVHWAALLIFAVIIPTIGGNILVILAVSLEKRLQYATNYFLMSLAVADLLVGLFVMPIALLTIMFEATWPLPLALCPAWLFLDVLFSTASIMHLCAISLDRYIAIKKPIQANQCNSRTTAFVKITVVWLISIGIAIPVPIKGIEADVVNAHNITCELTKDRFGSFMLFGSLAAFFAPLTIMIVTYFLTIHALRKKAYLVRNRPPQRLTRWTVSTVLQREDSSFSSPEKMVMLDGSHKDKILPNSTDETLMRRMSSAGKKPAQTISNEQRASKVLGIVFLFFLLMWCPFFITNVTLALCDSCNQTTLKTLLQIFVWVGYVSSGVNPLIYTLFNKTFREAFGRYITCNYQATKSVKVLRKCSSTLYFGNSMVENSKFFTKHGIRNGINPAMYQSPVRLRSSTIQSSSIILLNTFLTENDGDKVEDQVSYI

The Ki is a measure of affinity in units of concentration, obtained from inhibition or displacement. A high value points to weaker binding. On to `CCCN(CCC)C1CCc2cccc(O)c2C1` (configuration not stated), for which the inhibition constant Ki in assay [1] amounted to 251 nM; in assay [2], 1580 nM.
As for `c1ccc2c(N3CCNCC3)cccc2c1`, the Ki turned out to be 12 nM in [3], 7.41 nM in [4], 53.7 nM in [5] and 39.8 nM in [6].
On to `CC(C)(C)[C@]1(O)CCN2C[C@H]3c4ccccc4CCc4cccc(c43)[C@@H]2C1`, for which the inhibition constant (Ki) was 3890 nM in [5] and 31.6 nM in [1].
Consider `Cc1[nH]c2ccc(O)cc2c1CCN`, for which the inhibition constant Ki is 851 nM and 513 nM in assay [3]; 316 nM in [7]; 6610 nM in assay [8].
With `NCCc1c[nH]c2ccc(Br)cc12`, the affinity in [7], expressed as Ki, was 38.9 nM.
For `NCCc1c[nH]c2ccccc12` [1H-indole-3-ethanamine], the inhibition constant Ki in assay [7] and in assay [8] was 200 nM throughout.
In assay [9], `COc1ccc2[nH]cc(CCN(C)C)c2c1` [3-(2-DIMETHYLAMINOETHYL)-5-METHOXYINDOLE] gave a Ki of 5.12 nM.
In turn, `CN(C)CCc1c[nH]c2ccc(O)cc12` [3-[2-(dimethylamino)ethyl]indol-5-ol] had a Ki in assay [10] of 31.6 nM.
Regarding `Cn1cc(CCN)c2cc(O)ccc21` [5-HT,omega-N-Me], in assay [7], the Ki was found to be 10.5 nM.
Consider `COc1ccc2[nH]cc(C3=CCNCC3)c2c1` [5-Methoxy-3-(1,2,3,6-tetrahydro-pyridin-4-yl)-1H-indole(RU-24969)], for which the inhibition constant (Ki) in assay [10] is 158 nM; in [9], 63.1 nM; in assay [11], 10 nM; in assay [6], 1.58 nM and 2.57 nM and 0.36 nM; in assay [12] it was 46.8 nM.
Regarding `CN1CC(C(=O)N[C@]2(C)O[C@@]3(O)C4CCCN4C(=O)[C@H](Cc4ccccc4)N3C2=O)CC2c3cccc4[nH]cc(c34)CC21` (stereo partly drawn) [7-Methyl-4,6,6a,7,8,9,10,10a-octahydro-indolo[4,3-fg]quinoline-9-carboxylic acid ((2R,5S,10bS)-5-benzyl-10b-hydroxy-2-methyl-3,6-dioxo-octahydro-oxazolo[3,2-a]pyrrolo[2,1-c]pyrazin-2-yl)-amide], the inhibition constant Ki in assay [7] came to 145 nM; in assay [12], 0.06 nM.
As for `O=C(CCCN1CCC2(CC1)C(=O)NCN2c1ccccc1)c1ccc(F)cc1` [8-[4-(4-fluorophenyl)-4-oxidanylidene-butyl]-1-phenyl-1,3,8-triazaspiro[4.5]decan-4-one], the Ki was 1000 nM in assay [9]; 3.98 nM in assay [5]; 61.6 nM in assay [12]; 63.1 nM in [1]; 50.1 nM in assay [8].
`CCN(CC)C(=O)[C@@H]1C=C2c3cccc4[nH]cc(c34)C[C@H]2N(C)C1` [(4R,7R)-N,N-diethyl-6-methyl-6,11-diazatetracyclo[7.6.1.0^{2,7}.0^{12,16}]hexadeca-1(16),2,9,12,14-pentaene-4-carboxamide] had an inhibitory constant (Ki) in assay [9] of 12.6 nM.
Compound `CC(C)C[C@H]1C(=O)N2CCC[C@H]2[C@]2(O)O[C@](NC(=O)[C@@H]3C=C4c5cccc6[nH]c(Br)c(c56)C[C@H]4N(C)C3)(C(C)C)C(=O)N12` [Bromocriptine+ (GTP+)] came in with a Ki in assay [1] of 126 nM. This counts as sub-micromolar.
With `CCC(=O)c1ccc(N)cc1` [CAS_6270], in [9], the Ki was 34.7 nM.
With `CN1CCN(c2nc3cc(C(F)(F)F)ccc3n3cccc23)CC1` [CAS_109028-10-6], in assay [12], affinity was put at a Ki of 4.89 nM.
Regarding `CC(C)NCC(O)COc1cccc2[nH]ccc12` (configuration not stated) [LB-46], the Ki in assay [11] was determined as 63.1 nM.
Turning to `CCN(CC)C(=O)[C@@H]1C=C2c3cccc4[nH]c(Br)c(c34)C[C@H]2N(C)C1` [LSD,2-Bromo], the Ki stood at 12.6 nM in [7] and 10 nM in [1].
As for `CN1C[C@@H](NS(=O)(=O)N(C)C)C[C@@H]2c3cccc4c3c(cn4C)C[C@H]21` [MESULERGINE], the Ki in [3] is 1290 nM and 631 nM; in [1], 25.1 nM.
With `CN1C[C@H](CNC(=O)OCc2ccccc2)C[C@@H]2c3cccc4c3c(cn4C)C[C@H]21` [METERGOLINE], the Ki in assay [3] was 5.24 nM and 36.3 nM; in assay [4], 0.6 nM; in [13], 513 nM; in assay [12] it was 0.77 nM; in [14], 1120 nM and 776 nM; in [1] it was 31.6 nM.
Take `CN1CCN2c3ccccc3Cc3ccccc3[C@H]2C1` [MIANSERIN (+)]: the inhibition constant (Ki) in assay [10] amounted to 100 nM; in assay [5], 12.6 nM; in assay [12], 30.2 nM; in assay [1], 100 nM.
For `CCCN(CCC)CCc1c[nH]c2ccc(C(N)=O)cc12` [NN-DIPROP-5-CT], the values for the Ki in assay [3] and in assay [4] were 41.7 nM and 12.9 nM, respectively.
On to `CN1CCC(=C2c3ccccc3CCc3sccc32)CC1` [NSC_27400], for which affinity in assay [7] was put at a Ki of 38.9 nM.
Still for that read-out and setting: next, `CC(C)n1cc2c3c(cccc31)C1CC(C(=O)NC3CCCCC3)CN(C)C1C2` (configuration not stated) [NSC_60740]: 10.7 nM.
Turning to `CC(C)(C)NCC(O)COc1cccc2[nH]c(C#N)cc12` (configuration not stated) [NSC_155346], the Ki came to 21.4 nM in [3], 2.51 nM in assay [11], 0.26 nM in assay [6] and 36.3 nM in assay [12].
`CN1CCc2cc(Cl)c(O)cc2[C@@H](c2ccccc2)C1` [SCH 23390,R(+)]: the inhibition constant Ki in [7] came to 83.2 nM.
With `Cc1cc(C(C)(C)C)c(O)c(C)c1CC1=NCCN1` [SMR000059324], the Ki was 2.51 nM and 0.81 nM in [6]; 1.28 nM in assay [12].
As for `CNS(=O)(=O)Cc1ccc2[nH]cc(CCN(C)C)c2c1` [Sumax], the inhibitory constant (Ki) in assay [10] is 79.4 nM; in assay [14], 2340 nM and 2090 nM; in assay [2], over 10000 nM.
On to `FC(F)(F)c1cccc(N2CCNCC2)c1` [TFMPP], for which the values for the Ki in assay [10], in assay [7] and in [12] were 794 nM, 85.1 nM and 58.9 nM, respectively.
In assay [1], `CN(C)CCCN1c2ccccc2Sc2ccc(Cl)cc21` [[3-(2-Chloro-phenothiazin-10-yl)-propyl]-dimethyl-amine(Chlorpromazine)] came in with an inhibition constant (Ki) of 5010 nM.
With `COc1cc(CC(C)N)c(OC)cc1I` (configuration not stated) [[125I]2,5-dimethoxy-4-iodoamphetamine], the Ki in assay [5] amounted to 2510 nM; in assay [7] it was 27.5 nM.
For the compound `Clc1cccc(N2CCNCC2)c1` [mCPP], the Ki in assay [3] is 363 nM and 501 nM; in assay [7] it was 26.9 nM.
In the case of `CSc1ccc2c(c1)C(N1CCN(C)CC1)Cc1ccccc1S2` (configuration not stated) [methanesulfonic acid;1-methyl-4-(3-methylsulfanyl-5,6-dihydrobenzo[b][1]benzothiepin-5-yl)piperazine], the inhibition constant Ki in assay [13] was 1000 nM; in [6], 12.9 nM and 10.5 nM; in assay [12], 0.58 nM; in assay [14] it was 209 nM and 120 nM; in assay [2], 126 nM.
Turning to `COC(=O)[C@@H]1[C@H]2C[C@H]3c4[nH]c5ccccc5c4CCN3C[C@@H]2CC[C@@H]1O` [yohimbic acid methyl ester], the Ki in assay [10] is 63.1 nM; in [9], 5.24 nM; in [11], over 10000 nM; in [4] it was 15.8 nM and 47.9 nM; in [13], 562 nM; in [7] it was 58.9 nM and 35.5 nM and 107 nM and 53.7 nM. In addition, the Ki in [12] came to 30.9 nM.
